According to patent US9663561B2, “Methods of treatment of cancer using SRC-modulating peptides” (The University of Toledo, priority 2006, dated 2017):

Tests used:
Src and ERKs = details: cultured cells and animal models; cited from earlier work
[1] = target: T1, Src-ECFP and EYFP-rat α1 in LLC-PK1 cells (Rattus norvegicus, UniProt P06685); assay: FRET analysis in live cells; format: cell-based, pig; details: 100 μM ouabain, live LLC-PK1 cell
T1 construct: expressed in transfected cells; host or cells: LLC-PK1 (pig kidney)
Method: LLC-PK1 cells were cotransfected with Src-ECFP and EYFP-rat α1 and grown on a glass coverslip for 24 h. The coverslip was then mounted in a metal chamber and analyzed with a Leica DMIRE2 confocal microscope. The laser lines of 456 nm and 515 nm were used to illuminate fluorescence, and the emission intensities were recorded at 465-509 nm for Src-ECFP and 530-570 nm for EYFP-rat α1. The cell that expresses both Src-ECFP and EYFP-rat α1 was chosen and illuminated by only 456-nm laser. The cells express only Src-ECFP or EYFP-rat α1 were used for correction and determination of the laser intensity as well as the gain and offset settings. The emission intensities for both Src-ECFP and EYFP-rat α1 in selected membrane region was recorded at 465-509 nm (FECFP) and 530-570 nm (FEYEP), respectively. The FRET efficiency was reflected by the ratio of FEYFP/FECFP. After 50 s of recording, the same cell was exposed to ouabain and the recording was continued for indicated time.

[2] = target: T2, purified pig kidney Na+/K+-ATPase (Sus scrofa, UniProt P05024); assay: ATPase activity of purified pig kidney Na+/K+-ATPase; format: biochemical; details: 10 μM ouabain
T2 construct: Na+/K+-ATPase was purified from pig kidney outer medulla using the Jorgensen method; from tissue; host or cells: pig kidney outer medulla
Source text: Src, without the first 85 amino acid residues, was purified from sf-9 cells as described (Ma et al., 2000) and used in the initial binding assays to ensure that Src binds to the Na+/K+-ATPase, but not the lipid composition in the purified Na+/K+-ATPase preparation. In subsequent experiments (e.g., phosphorylation and activity assays), purified recombinant full-length Src from Upstate Biotechnology was used. Na+/K+-ATPase was purified from pig kidney outer medulla using the Jorgensen method (Xie et al., 1996) and the preparations with specific activities between 1200 and 1400 μmol Pi/mg/h were used.
GST fusion proteins or His-tagged proteins were expressed in Escherichia coli BL21 and purified on glutathione beads or nickel column.

Na+/K+-ATPase = Na+/K+-ATPase activity assay in cell lysates; format: biochemical, pig; details: 10 μM ouabain, PY-17 and P-11 cells
Method: Na+/K+-ATPase enzymatic activity was determined Briefly, cells were collected from the cultures in Tris-EGTA buffer (pH 7.2) and briefly sonicated. The cell lysates were then treated with alamethicin at a concentration of 0.1 mg/mg of protein for 30 min at room temperature. ATPase activity was measured by the determination of the initial release of 32P from [,y-32P]ATP, and the reaction was carried out in a reaction mixture (1 ml) containing 100 mM NaCl, 25 mM KCl, 3 mM MgCl2, 1 mM EGTA, 2 mM ATP, 5 mM NaN3, and 50 mM Tris-HCl (pH 7.4). Na+/K+-ATPase activity was calculated as the difference between the activities measured in the absence of ouabain and in the presence of 1 mM ouabain. To determine the ouabain concentration curve, the alamethicin-treated cell lysates were preincubated with different concentrations of ouabain for 15 min before ATP was added to start the reaction.

[3] = target: T3, Na+/K+-ATPase/Src complex (Sus scrofa, UniProt P05024); assay: Src kinase activity (commercial kit) of Na+/K+-ATPase-bound Src; format: biochemical; details: 10 μM ouabain
T3 construct: Na+/K+-ATPase was purified from pig kidney outer medulla using the Jorgensen method; tissue Upstate Biotechnology (Src only); host or cells: pig kidney outer medulla (Na+/K+-ATPase)
Method: The Src kinase activity was assayed using a commercial kit (Haas et al., 2000). To determine how Na+/K+-ATPase affects Src kinase activity, the purified Src (4.5 U) was incubated with 5 μg of the purified Na+/K+-ATPase in the Src assay buffer for 30 min at room temperature. Afterward, both control Src or the Na+/K+-ATPase-bound Src were exposed to 10 μM ouabain and Src kinase activity was determined. In other experiments, the Src pY418 was measured by anti-pY418 antibody to indicate Src activation (Ma et al., 2000). To do so, the purified Src (4.5 U) was incubated with different amounts of the purified Na+/K+-ATPase or GST-Na+/K+ATPase constructs in phosphate-buffered saline (PBS) for 30 min at 37° C. Afterward, 2 mM ATP/Mg2+ was added. The reaction continued for 5 min at 37° C. and was stopped by addition of SDS sample buffer.

LLC-PK1 cells = assay: Tyrosine phosphorylation of Na+/K+-ATPase-associated proteins (anti-α1 immunoprecipitation); format: cell-based, pig; details: 1 μM ouabain, 5 min
Method: FIG. 9A. LLC-PK1 cells were treated with 1 μM ouabain for 5 min, and cell lysates were immunoprecipitated with anti-α1 antibody and analyzed for tyrosine phosphorylated proteins.
Cells were lysed in RIPA buffer containing 1% Nonidet P40, 0.25% sodium deoxycholate, 150 mM NaCl, 1 mM EDTA, 1 mM phenylmethylsulfonyl fluoride, 1 mM sodium orthovanadate, 1 mM NaF, 10 μg/ml aprotinin, 10 μg/mlleupeptin, and 50 mM Tris-HCl (pH 7.4). Cell lysates were cleared by centrifugation at 16,000×g for […], and the supernatants (1 mg) were either immunoprecipitated with anti-α1 antibody or incubated with different GST-fusion proteins. The complexes were then pulled down by either protein G agarose or glutathione beads (Ma et al., 2000; Haas et al., 2002) and analyzed by Western blot.

[4] = tested on: Na+/K+-ATPase/Src complex; assay: Effect of ouabain on binding of GST-Src constructs to Na+/K+-ATPase; details: 10 μM ouabain, 15 min
Method: FIG. 7C. A representative Western blot of four separate experiments showing that ouabain induced the release of the kinase domain from the Na+/K+-ATPase. […] Complexes were then pulled down on glutathione beads, washed three times, resuspended in 500 μl PBS, and exposed to 10 μM ouabain for 15 min. The beads were then washed for three more times using PBS, and the pulled down Na+/K+-ATPase was analyzed by Western blot using anti-α1 antibody
Because the inventors have shown that multiple domains are involved in Src interaction with the Na+/K+ATPase, the above findings led us to test if ouabain dissociates only a single (kinase) domain from the interacting Na+/K+-ATPase. […] Afterward, the complexes were exposed to 10 μM ouabain.

## C[C@@H]1O[C@@H](O[C@H]2C[C@@H](O)[C@]3(CO)[C@H]4[C@H](O)C[C@]5(C)[C@@H](C6=CC(=O)OC6)CC[C@]5(O)[C@@H]4CC[C@]3(O)C2)[C@H](O)[C@H](O)[C@H]1O [ouabain]
Src and ERKs
  physiological concentrations able to activate Src and ERKs: 0.1-1 nM
[1]
  FRET between Src-ECFP and EYFP-rat α1: reduction in FRET
[2]
  inhibition of the ATPase activity: complete inhibition
Na+/K+-ATPase
  inhibition of the Na+/K+-ATPase in cell lysates: complete inhibition
[3]
  Src kinase activity of Na+/K+-ATPase-bound Src: restored the kinase activity
LLC-PK1 cells
  tyrosine phosphorylation of Na+/K+-ATPase-associated proteins: stimulated tyrosine phosphorylation
[4]
  binding of Src kinase domain to the Na+/K+-ATPase: dissociated the kinase domain
  binding of full-length Src or SH3SH2 domain to the Na+/K+-ATPase: no effect on the binding of either full-length Src or the SH3SH2 domain
